Data: ChEMBL document CHEMBL2040774, “Potent antiviral HIV-1 protease inhibitor GRL-02031 adapts to the structures of drug resistant mutants with its P1'-pyrrolidinone ring” (J Med Chem, 2012)

Tests used:
[1] = test system: Human immunodeficiency virus 1; experiment: Resistance index, ratio of Ki for HIV1 protease V82A mutant to Ki for HIV1 wild type protease
[2] = target: Human immunodeficiency virus type 1 protease (Human immunodeficiency virus 1, UniProt Q72874, N88D); experiment: Inhibition of HIV1 protease N88D mutant using Abz-Thr-Ile-Nle-p-nitro-Phe-Gln-Arg-NH2 as substrate after 5 mins by spectrophotometry
[3] = test system: Human immunodeficiency virus 1; experiment: Resistance index, ratio of Ki for HIV1 protease L76V mutant to Ki for HIV1 wild type protease
[4] = test system: Human immunodeficiency virus 1; experiment: Resistance index, ratio of Ki for HIV1 protease N88D mutant to Ki for HIV1 wild type protease
[5] = test system: Human immunodeficiency virus 1; experiment: Resistance index, ratio of Ki for HIV1 protease I47V mutant to Ki for HIV1 wild type protease
[6] = target: Human immunodeficiency virus type 1 protease (Human immunodeficiency virus 1, UniProt Q72874, L76V); experiment: Inhibition of HIV1 protease L76V mutant using Abz-Thr-Ile-Nle-p-nitro-Phe-Gln-Arg-NH2 as substrate after 5 mins by spectrophotometry
[7] = target: Protease (Human immunodeficiency virus 1, UniProt Q9YQ12); experiment: Inhibition of HIV1 wild type protease using Abz-Thr-Ile-Nle-p-nitro-Phe-Gln-Arg-NH2 as substrate after 5 mins by spectrophotometry
[8] = target: Human immunodeficiency virus type 1 protease (Human immunodeficiency virus 1, UniProt Q72874, V82A); experiment: Inhibition of HIV1 protease V82A mutant using Abz-Thr-Ile-Nle-p-nitro-Phe-Gln-Arg-NH2 as substrate after 5 mins by spectrophotometry
[9] = target: Human immunodeficiency virus type 1 protease (Human immunodeficiency virus 1, UniProt Q72874, I47V); experiment: Inhibition of HIV1 protease I47V mutant using Abz-Thr-Ile-Nle-p-nitro-Phe-Gln-Arg-NH2 as substrate after 5 mins by spectrophotometry

Chain of Protease (Q9YQ12 whole entry): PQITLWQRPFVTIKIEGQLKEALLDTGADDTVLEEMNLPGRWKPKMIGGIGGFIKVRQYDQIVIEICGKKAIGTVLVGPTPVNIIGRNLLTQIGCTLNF

Structure (SMILES): COc1ccc(S(=O)(=O)N(C[C@H]2CCC(=O)N2)C[C@@H](O)[C@H](Cc2ccccc2)NC(=O)O[C@@H]2C[C@@H]3CCO[C@@H]3C2)cc1
- Ratio Ki [1]: < 2
- Ki [2]: 0.92 nM
- Ratio Ki [3]: < 2
- Ratio Ki [4]: < 2
- Ratio Ki [5]: < 2
- Ki [6]: 0.8 nM
- Ki [7]: 0.44 nM
- Ki [8]: 0.65 nM
- Ki [9]: 0.46 nM
